The text below walks through data of PubChem BioAssay AID493130 (Broad Institute, 2011).

Records with an inconclusive call do not appear. Activity calls are given as the source filed them.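 The calls were made as follows: active = signal-lowering compounds whose fitted half-maximal concentration is at most ten times their highest tested dose; inconclusive = flat fit between -30 and -70%, or poor fit; inactive = flat within 30%, signal rising, or potency beyond limit.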

The first assay has as its target POS-1 (Caenorhabditis elegans) binding to mex-3 RNA. The experiment in a line: inhibitors of POS-1/mex-3 RNA binding, dose response, counter-screen for MEX-5 RNA-binding inhibitor project, biochemical, fluorescence polarization, cherry-picked samples, set 2 (AID 493130).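 Also: POS-1 as maltose binding protein fusion made in E. coli with FITC RNA.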 The settings on record: POS-1/mex-3 RNA fluorescence polarization, 1 h. A general note: The purpose of a counterscreen is to sort out artefacts and off-target activity.
For `CCCCCCc1cc2cc(C(=O)NC)c(=N)oc2cc1O`, the AC50 is 1620 nM. On to `O=[N+]([O-])c1ccc(NCc2ccccc2)c2nonc12`, for which the AC50 is 434 nM.

The same assay, now with this note: POS-1/mex-3 RNA fluorescence polarization, 1 h; at 10 µM (top of the series).
For `Cc1cccc(-n2c(N)c(-c3nc4ccccc4n3C)c3nc4ccccc4nc32)c1`, the “activity change, negative = inhibition” value is “inactive”. The same measure, in the same setting: the same measure for `CCCCN(C(=O)c1ccc(C)o1)c1c(N)n(CCCC)c(=O)[nH]c1=O`: “inactive”.

`Cc1nnc(N2C(=O)C(O)=C(C(=O)c3ccco3)C2c2ccc(C(C)C)cc2)s1` (stereo not given): the “activity change, negative = inhibition” value was “inactive”. Same read-out and setting: the value for `O=c1nc(-c2ccccc2)c2cc(Br)ccc2[nH]1` was “inactive”. On the same count and under the same terms, the value for `Nc1c(C(=O)Nc2ccccc2F)sc2nc(-c3cccnc3)ccc12` was “inactive”; that for `COCCNC(=S)NNC(=O)c1cccs1` was “inactive”. The same measure, in the same setting: the value for `O=C(CN1C(=O)/C(=C/c2cccc(Br)c2)SC1=S)NC1=NCCS1` was “inactive”; that for `O=C(Nc1ccc(OCc2ccccc2)cc1)Nc1cccnc1` was “inactive”. As for `CC/C(=N/Nc1cccc(C)c1)c1cnnc(SC)n1`, the “activity change, negative = inhibition” value was “inactive”. Regarding `COC(=O)c1ccc(N2NC(=O)/C(=C/c3ccc(-c4ccc(Cl)c(C(=O)O)c4)o3)C2=O)cc1`, the “activity change, negative = inhibition” value was “inactive”. As for `COc1ccc(/C=N/NC(=O)c2ccc(=O)[nH]n2)cc1OC`, the “activity change, negative = inhibition” value was “inactive”.

Take `COc1cccc(-c2cn3nc4c(nc3n2)CCCC4)c1`: the “activity change, negative = inhibition” value is “inactive”. The same measure, in the same setting: the same measure for `C#CCN1C(=O)S/C(=C\c2ccc(-c3ccc(Cl)c(C(=O)O)c3)o2)C1=O`: “inactive”.

As to `CS(=O)(=O)Nc1ccc(-c2ccc(/C=C3\SC(N)=NC3=O)o2)cc1`, the “activity change, negative = inhibition” value was “inactive”. On the same count and under the same terms, the same measure for `Nc1ccc(Cc2ccc(N)c(C(=O)O)c2)cc1C(=O)O`: “inactive”; for `Cc1c(Cl)cccc1NC(=O)C(=O)NNS(=O)(=O)c1ccc(F)cc1`: “inactive”; for `COC(=O)c1cc(O)c(O)c(O)c1`: “inactive”. Same read-out and setting: the same measure for `Cc1cc(/C=C2/C(=N)N3C(=NC2=O)SN=C3S(C)(=O)=O)c(C)n1-c1ccc(F)cc1`: “inactive”; for `COC(=O)c1ccc(CC(=O)c2ccc(O)cc2O)o1`: “inactive”. Same read-out and setting: the same measure for `Cc1c(N=NC2=C(O)CCCC2=O)c(=O)n(-c2ccccc2)n1C`: “inactive”; for `COc1cc2c(cc1O)C[C@H]1NCCc3cc4c(c-2c31)OCO4`: “inactive”. For `CCOC(=O)C(=NC(C)C)NNc1cc(Cl)ccc1Cl`, the “activity change, negative = inhibition” value was “inactive”.

Regarding `CCCOc1ccc(C2=CSC3=NCCN23)cc1[N+](=O)[O-]`, the “activity change, negative = inhibition” value was “inactive”.

In general, AC50 refers to the concentration giving half of the maximal activity seen.
